Values joined by “and” are separate entries in the source; they are usually repeats but may differ in a detail not shown here. Identical values can stand only once. Each block holds one molecule with its values, some of them ahead of it.
Experiments:
[1] = Analgesic activity by the acetic acid-writhing method; assay type: in vivo, mouse (ddy-strain); settings: mice, *P < 0.05, **P < 0.01
Experimental: Analgesic activity of test compound as estimated according to the acetic acid-writhing method
Mice of ddy-strain (body weight 20 to 25 grams) were employed as the test animal. A suspension of the compound under test was subcutaneously injected in such a manner that said suspension as injected into each mouse provides the dosage of 30 mg/kg or 300 mg/kg of the test compound. 30 Minutes after the administration, an aqueous solution of 0.6% of acetic acid was injected intraperitoneally into the mice at a volume of 0.1 ml per 10 g of the body weight. 5 Minutes after the injection of the aqueous acetic acid, the estimation was commenced to count the number of the writhing reaction of the treated mice (the motions such as abdominal constrictions and extensions of the treated mice as induced by the injection of acetic acid) which took place for the subsequent 15 minutes.
The rate (%) of suppression of the writhing reaction by the test compound was evaluated according to the following equation: [formula]

enkephalinase = target: T1, enkephalinase (Rattus norvegicus, UniProt P07861); test: Inhibitory activity against enkephalinase; assay type: biochemical; settings: enkephalinase from corpus striatum of rat brain; substrate methionine-enkephaline; pH 7.7; 1 hour at 37° C.
T1 construct: A preparation of enkephalinase was made by homogenizing corpus striatum of rat brain and by partial purification of the brain homogenate; from tissue; host or cells: rat brain corpus striatum, homogenized and partially purified
T1 sequence (P07861 1-750): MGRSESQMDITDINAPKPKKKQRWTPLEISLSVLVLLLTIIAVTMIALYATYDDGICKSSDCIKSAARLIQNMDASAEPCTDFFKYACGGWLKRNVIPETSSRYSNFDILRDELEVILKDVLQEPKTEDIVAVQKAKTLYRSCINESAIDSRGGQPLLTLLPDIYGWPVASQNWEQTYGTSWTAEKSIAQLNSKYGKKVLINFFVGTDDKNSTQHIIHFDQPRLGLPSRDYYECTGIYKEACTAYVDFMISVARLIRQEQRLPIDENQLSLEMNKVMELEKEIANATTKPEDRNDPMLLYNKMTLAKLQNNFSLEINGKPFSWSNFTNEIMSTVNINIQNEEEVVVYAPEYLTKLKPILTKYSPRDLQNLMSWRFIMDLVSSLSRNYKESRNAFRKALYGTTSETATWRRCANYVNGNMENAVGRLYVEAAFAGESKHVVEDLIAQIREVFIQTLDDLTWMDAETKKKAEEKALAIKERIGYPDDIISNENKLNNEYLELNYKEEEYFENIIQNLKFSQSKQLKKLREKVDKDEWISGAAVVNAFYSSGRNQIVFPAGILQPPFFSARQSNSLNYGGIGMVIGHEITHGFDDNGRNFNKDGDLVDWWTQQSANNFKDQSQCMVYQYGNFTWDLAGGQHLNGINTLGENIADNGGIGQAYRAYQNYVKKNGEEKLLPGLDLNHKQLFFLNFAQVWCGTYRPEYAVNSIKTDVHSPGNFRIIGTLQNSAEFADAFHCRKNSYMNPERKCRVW
Experimental: Inhibitory activity against enkephalinase
A preparation of enkephalinase was made by homogenizing corpus striatum of rat brain and by partial purification of the brain homogenate according to the method of Gorenstein et al (see: the "Life Science" vol. 25, 2065~2070 (1979)).
A test compound as identified in Table 1 below was dissolved in a mixture of Tris-hydrochloride buffered solution (pH 7.7) and an aqueous 1% Triton×100 (an active surfactant) to such a concentration that the added quantity of the test compound amounted to one-tenth of the volume of said mixture. To the solution of the test compound so prepared was added the enkephalinase, followed by incubation for 5 minutes at ambient temperature and the resulting mixture was admixed with methionine-enkephaline as the substrate. The reaction mixture so prepared was incubated for 1 hour at 37° C. and then subjected to a high-performance liquid chromatography in such a manner that the Tyr-Gly-Gly (a fragment of the methionine-enkephaline) formed by the enzymatic degradation of the methionine-enkephaline was isolated and the quantity of Tyr-Gly-Gly was determined by an electro-chemical detector. In this way, IC50 value of the test compound, namely, the dose of the test compound required for 50% inhibition of the enkephalinase was measured.

[2] = Effect of enhancing the analgesia by DAME, tail-flick latency method; assay type: in vivo, rat; settings: rats; for Enhancement in the analgesia by DAME: DAME 10 μg + test compound 30 μg relative to DAME 10 μg; for M.P.E. DAME 10 μg + Test Compound 30 μg: n = 3 - 4, **P < 0.01; for M.P.E. Test compound 30 μg: test compound 30 μg alone, n = 3 - 4
Experimental: Effect of enhancing the analgesia by [D-ala^2,met^5 ]enkephaline (abbreviated as DAME)
A known analgesic compound, DAME and the particular compound under test of this invention were administered into the brain of the test rats by puncture of cerebroventride.
Thus, the test compound was administered into the brain of the rats using a metal cannula of 400 μm in external diameter which had been inserted into the ventriculus lateralis cerebri in a brain region of 3.2 mm anterior from the bregma, 0 mm from the central line and 0.7 mm in depth, of the brain. [see "L. J. Pellegrino and A. J. Cushman; A Stereotaxic Atras of the Rat Brain. Appleton-Century-Crofts, Division of Meredith Publishing Co., New York, (1967)"]. The test for the estimation was commenced at such a time after 48 hours or more later than the end of the surgical operation when the test rats were deemed as having recovered from the damages induced by the surgical operation. Analgesia tests were conducted using the rats having been closely restrained in a wire mesh cage, according to the tail-flick latency method (see: Hachisu et al., Life Sciences, 30, 1739-1746 (1982)). Analgesic activity was evaluated in term of the value of percentage of increase in the tail-flick latency time of the test rats receiving the test compound, as compared with the control rats receiving no test compound. The power of the radiant heat source was adjusted to give a tail-flick latency value (as the control value) of about 2 seconds for the rats before the administration of the test compound.
The cut-off of 7 seconds was used in order to prevent the tail tissues from being damaged by the heat. The maximal percent effect (M.P.E) of the tail-flick latency test was calculated according to the following equation: [formula]

[3] = into the brain (cerebroventricle)

Molecule: N[C@@H](CS)C(=O)N[C@H](Cc1ccccc1)[C@H](O)C(=O)O [(2S,3R)-N--(L-Cys)--AHPA, (2S,3R)-3-(N-L-Cysteinyl)amino-2-hydroxy-4-phenylbutanoic acid]
Enhancement in the analgesia by DAME [2]: 604.2
M.P.E. DAME 10 μg + Test Compound 30 μg [2, 3]: 87.0 ± 13.0%
M.P.E. Test compound 30 μg [2, 3]: 10.0 ± 5.2%
Rate of suppression (%) (average value ± S.E.) ([1]; 30 mg/kg subcutaneous): 56.5 ± 9.9%
Rate of suppression (%) (average value ± S.E.) ([1]; 300 mg/kg subcutaneous): 47.9 ± 11.9%
IC50 (enkephalinase): 40 µM

Molecule: N[C@H](Cc1ccccc1)[C@H](O)C(=O)O [(2S,3R)-AHPA, 3-amino-2-hydroxy-4-phenylbutanoic acid, reference compound]
IC50 (enkephalinase): 14000 µM

Molecule: CC(=O)SCC(=O)N[C@H](Cc1ccccc1)[C@H](O)C(=O)NCC(=O)O [(2S,3R)-N--(AcSCH2 CO)--AHPA--Gly, N-{(2S,3R)-3-[N-(acetylthioacetyl)]amino-2-hydroxy-4-phenylbutanoyl}glycine]
IC50 (enkephalinase): > 300 µM

Molecule: CC(=O)SCC(=O)N[C@H](Cc1ccccc1)[C@H](O)C(=O)N[C@@H](CC(C)C)C(=O)O [(2S,3R)-N--(AcSCH2CO)--AHPA--L-Leu, N-{(2S,3R)-3-[N-(acetylthioacetyl)]amino-2-hydroxy-4-phenylbutanoyl}-L-leucine]
IC50 (enkephalinase): > 300 µM

Molecule: [D-ala^2,met^5 ]enkephaline [DAME, reference compound]
M.P.E. DAME 10 μg ([2]; DAME 10 μg alone, into the brain (cerebroventricle), n = 3 - 4, *P < 0.05): 16.2 ± 3.9% and 14.4 ± 4.2%

Molecule: CC(SC(=O)c1ccccc1)C(=O)N[C@H](Cc1ccccc1)[C@H](O)C(=O)O (stereo partly drawn) [(2S,3R)-N--(BzSCH(Me)CO)--AHPA, (2S,3R)-3-[N-(2-benzoylthiopropionyl)]amino-2-hydroxy-4-phenylbutanoic acid]
IC50 (enkephalinase): > 300 µM

Further lines, with some results ahead:

IC50 (enkephalinase): 3 µM
Molecule: O=C(CS)N[C@H](Cc1ccccc1)[C@H](O)C(=O)O [(2S,3R)-N--(HSCH2 CO)--AHPA, (2S,3R)-3-[N-(mercaptoacetyl)]amino-2-hydroxy-4-phenylbutanoic acid]
Rate of suppression (%) (average value ± S.E.) ([1]; 30 mg/kg subcutaneous): 12.5 ± 14.7%
Rate of suppression (%) (average value ± S.E.) ([1]; 300 mg/kg subcutaneous): 36.5 ± 10.5%

IC50 (enkephalinase): 300 µM
Molecule: CC(=O)SCC(=O)N[C@@H](Cc1ccccc1)[C@H](O)C(=O)O [(2S,3S)-N--(AcSCH2 CO)--AHPA, (2S,3S)-3-[N-(acetylthioacetyl)]amino-2-hydroxy-4-phenylbutanoic acid]

IC50 (enkephalinase): 20 µM
Molecule: O=C(CS)N[C@@H](Cc1ccccc1)[C@H](O)C(=O)O [(2S,3S)-N--(HSCH2 CO)--AHPA, (2S,3S)-3-[N-(mercaptoacetyl)]amino-2-hydroxy-4-phenylbutanoic acid]

IC50 (enkephalinase): 50 µM
Molecule: CC(=O)SCC(=O)N[C@H](Cc1ccccc1)[C@H](O)C(=O)O [(2S,3R)-N--(AcSCH2 CO)--AHPA, (2S,3R)-3-[N-(acetylthioacetyl)]amino-2-hydroxy-4-phenylbutanoic acid]
Enhancement in the analgesia by DAME [2]: 617.2
M.P.E. DAME 10 μg + Test Compound 30 μg [2, 3]: 100 ± 0%
M.P.E. Test compound 30 μg [2, 3]: 13.1 ± 6.0%
Rate of suppression (%) (average value ± S.E.) ([1]; 30 mg/kg subcutaneous): 33.7 ± 13.5%
Rate of suppression (%) (average value ± S.E.) ([1]; 300 mg/kg subcutaneous): 33.3 ± 13.4%

IC50 (enkephalinase): > 300 µM
Molecule: O=C(CCSC(=O)c1ccccc1)N[C@H](Cc1ccccc1)[C@H](O)C(=O)O [(2S,3R)-N--(BzSCH2 CH2 CO)--AHPA, (2S,3R)-3-[N-(3-benzoylthiopropionyl)]amino-2-hydroxy-4-phenylbutanoic acid]

From patent US4719231A, “3-[N-(mercaptoacyl)]amino-4-arylbutanoic acid derivatives and an analgesic agent comprising the same” (Zaidan Hojin Biseibutsu Kagaku Kenkyu Kai, priority 1984, dated 1988)
